Source: patent US11111217B2, “2-arylbenzimidazoles as Ppargc1a activators for treating neurodegenerative diseases” (The Board of Trustees of the Leland Stanford Junior …, priority 2018, dated 2021)
Where two headings read alike, the source gives them in different places.

Legend:
[1] = Pharmacokinetic study (mouse), levels of API after prodrug dosing; assay type: in vivo; settings: mice, 10 mg/kg p.o., 1 h, 2 h, 4 h; for brain levels of API (example 1 compound): brain at 0.5 h, LCMS (FIG. 2); for liver levels of API (example 1 compound): liver at 0.5 h, LCMS (FIG. 3); for plasma levels of API (example 1 compound): plasma at 0.5 h, LCMS (FIG. 1)
Experimental: Pharmacokinetic studies (mouse) were performed on the example 1, 6-P, 8-P, and 11-P compounds of the present invention. The example 1, 6-P, 8-P, and 11-P compounds were dosed in mice at 10 mg/kg p.o. (n=2). Plasma, brain, and liver were harvested at 0.5 h, 1 h, 2 h, and 4 h. The samples were analyzed by LCMS to determine levels of the example 1 compound, i.e., the active pharmaceutical ingredient (API) for prodrug examples 6-P, 8-P, and 11-P.

[2] = Microsome stability assay, mouse liver microsomes; assay type: in vitro ADME; settings: pH 7.4, 1 μM test compound, NADPH 1 mM, 37° C., 0-40 mins, read-out: MLM t1/2
Experimental: (§1) Microsome Stability Assay Protocol
(§2) Human liver microsomes (Corning #452117 lot 38291) or Mouse liver microsomes (Corning #452701, lot #6328004) were separately combined at a final concentration of […] with KxPO4 pH 7.4 (100 mM), MgCl2 (10 mM), and test compound (1 μM) and pre-incubated (10 min, 37° C.). Next, NADPH (1 mM) was added to begin reactions (total volume 100 μL). At various time points (0, 10, 20, and 40 mins), reactions were quenched with Clem stop solution (100 μL, 625 ng/mL) (Cyprotex) in Acetonitrile. Samples were centrifuged at 4000 g for 20 mins, diluted (75 μL into 75 μL 0.1% formic acid in water), and analyzed by LC-MS/MS.

[3] = Microsome stability assay, human liver microsomes; assay type: in vitro ADME; settings: pH 7.4, 1 μM test compound, NADPH 1 mM, 37° C., 0-40 mins, read-out: HLM t1/2
Experimental: as §1, §2

[4] = tested on: TNF-α production by BV2 cells or PBMC; assay: Cellular assay to measure TNF-α inhibition (LPS-stimulated, ELISA); assay type: cell-based, murine (BV2) or human (PBMC); settings: BV2 cells or PBMC (not specified), LPS 100 ng/ml over 24 hours, relative to DMSO vehicle; compound concentration not stated
From the text: Oxidative metabolism exerts an anti-inflammatory effect on myeloid cell phenotype (O'Neill L A, Front Immunol. 2014) and Ppargc1a can promote this energy metabolic pathway (Spiegelman BM, Novartis Found Symp. 2007). Thus, pharmacological activation of Ppargc1a would be expected to inhibit the inflammatory response of myeloid cells. This phenomenon can be measured in cultures by a TNF-α inhibition assay.
Cellular Assay Protocol to Measure TNF-α Inhibition
The murine myeloid cell line BV2 or human peripheral blood mononuclear cells (PBMC) are cultured in RPMI 1640 media (Cat #11875119, Gibco) supplemented with 10% fetal bovine serum and 1% L-glutamine 1% penicillin. These cells are then stimulated with 100 ng/ml of lipopolysaccharide (LPS, O111:B34, Cat # L2630, Sigma) over 24 hours. LPS stimulation results in the secretion of the inflammatory cytokine TNF-α by BV2 cells or PBMC, which can be quantified by ELISA in culture supernatant samples per manufacturer's protocol (Cat #558273 for BV2 and Cat #558299 for PBMC, BD Biosciences). To determine whether exampl compounds 1-78 inhibit TNF-α production by BV2 cells or PBMC, the cells were cultured in the presence of the compounds at different concentrations, and fold reduction in TNF-α production relative to TNF-α production by the same cells cultured in the presence of dimethylsulfoxide (as vehicle control) was determined.

[5] = Caco-2 permeability assay; settings: human, Caco-2, pH 7.4, with elacridar (concentration not stated)
Caco-2 cells [6] = assay: Caco-2 permeability assay; settings: 10 μM, HBSS pH 7.4, 37° C., 2 h; for Caco2 A → B: without elacridar
Experimental: Caco-2 Permeability Assay Protocol
(§3) Caco-2 cells were maintained in DMEM in an atmosphere of 5% CO2. For transport experiments 5×10^5 cells/well of were seeded on polycarbonate filter inserts and allowed to grow and differentiate for 21±4 days before the cell monolayers were used for experiments. Apparent permeability coefficients were determined for A→B and B→A directions with and without the presence of elacridar as a transporter inhibitor. Up to three test items and reference compounds were dissolved in Hank's balanced salt solution at pH 7.4 to yield a final concentration of 10 μM.
(§4) The assays were performed in HBSS containing 25 mM HEPES (pH 7.4) at 37° C. Prior to the study, the monolayers were washed in prewarmed HBSS. At the start of the experiments prewarmed HBSS containing the test items was added to the donor side of the monolayer and HBSS without test items was added to the receiver side. Aliquots of the receiver side were taken over the 2 h incubation period; aliquots of the donor side were taken at 0 hand 2 h. Aliquots were diluted with an equal volume of methanol/water with 0.1% formic acid containing the internal standard. The mixture was analyzed by LC-MS/MS. The apparent permeability coefficients (Papp) were calculated using the formula: Papp=(dCrec/dt)/(A×C0,donor)]×106 with dCrev/dt being the change in concentration in the receiver compartment with time, C0,donor the concentration in the donor compartment at time 0, and A the area of the compartment with the cells.

in vitro = settings: human, Caco-2, pH 7.4
Experimental: Caco-2 Permeability Assay Protocol
as §3, §4

Caco-2 cells [7] = settings: human, Caco-2, 2 h, 10 μM, pH 7.4
Experimental: Caco-2 Permeability Assay Protocol
as §3, §4

| brain levels of API (example 1 compound) [1] | liver levels of API (example 1 compound) [1] | plasma levels of API (example 1 compound) [1] | half-life at 1 μM [2] [min] | half-life at 1 μM [3] [min] | Papp A→B at 2 h, 10 μM [5] [×10⁻⁶ cm/s] | Caco2 B → A (Caco-2 cells [6]) [nm/s] | Caco2 A → B (Caco-2 cells [6]) [nm/s] | Caco2 A → B w/ elacridar (Caco-2 cells [6]; with elacridar as transporter inhibitor) [nm/s] | Structure (SMILES) | TNF α Inhibition [4] | Papp A→B at 2 h, 10 μM (in vitro) [×10⁻⁶ cm/s] | Caco2 B → A (Caco-2 cells [7]) [nm/s] |
| --- | --- | --- | --- | --- | --- | --- | --- | --- | --- | --- | --- | --- |
| measurable amounts | measurable amounts | measurable amounts | – | – | – | – | – | – | CC(C)(C)c1ccc(-c2nc3ccccc3n2COC(=O)CCC(=O)O)cc1 [Example 6-P, 4-((2-(4-(tert-Butyl)phenyl)-1H-benzo[d]imidazol-1-yl)methoxy)-4-oxobutanoic acid] | – | – | – |
| – | – | – | 20.6 | 42.5 | 2.05 | 45.4 | 23.6 | – | CC(C)(C)c1ccc(-c2nc3cc(N)ccc3[nH]2)cc1 [Example 44, 2-(4-tert-Butylphenyl)-1H-benzo[d]imidazol-5-amine] | A (A = >80% inh.) | – | – |
| – | – | – | 132 | 59.8 | 0.0336 | 1.31 | – | 0.005 | CC(C)(C)c1ccc(-c2nc3c(F)c(F)c(F)c(F)c3[nH]2)cc1 [Example 63, 2-(4-tert-Butylphenyl)-4,5,6,7-tetrafluoro-1H-benzo[d]imidazole] | A (A = >80% inh.) | – | – |
| – | – | – | 21.4 | 20.6 | 0.0693 | 9.94 | 4.27 | – | CC(C)(C)c1ccc(-c2nc3c(F)c(F)ccc3[nH]2)cc1 [Example 55, 2-(4-tert-Butylphenyl)-4,5-difluoro-1H-benzo[d]imidazole] | A (A = >80% inh.) | – | – |
| measurable amounts | measurable amounts | measurable amounts | – | – | – | – | – | – | CC(C)(C)c1ccc(-c2nc3ccccc3n2COP(=O)([O-])[O-])cc1.[Na+].[Na+] [Example 11-P, Disodium ((2-(4-(tert-butyl)phenyl)-1H-benzo[d]imidazol-1-yl)methyl) phosphate] | – | – | – |
| – | – | – | 10.5 | 31.3 | 0.0634 | – | 13.3 | – | CC(C)(C)c1cccc(-c2nc3c(F)cc(F)cc3[nH]2)c1 [Example 77, 2-(3-tert-Butylphenyl)-4,6-difluoro-1H-benzo[d]imidazole] | A (A = >80% inh.) | – | – |
| – | – | – | 23.8 | 13.6 | 1.06 | – | 15.5 | – | [2H]c1cc([2H])c2nc(-c3ccc(C(C)(C)C)cc3)[nH]c2c1 [Example 61, 2-(4-tert-Butylphenyl)-4,6-dideuterio-1H-benzo[d]imidazole] | A (A = >80% inh.) | – | – |
| – | – | – | 23.2 | 103 | 0.0849 | 1.73 | 0.748 | – | CC(C)(C)c1ccc(-c2nc3c(C(F)(F)F)cccc3[nH]2)cc1 [Example 56, 2-(4-tert-Butylphenyl)-4-(trifluoromethyl)-1H-benzo[d]imidazole] | A (A = >80% inh.) | – | – |
| measurable amounts | measurable amounts | measurable amounts | – | – | – | – | – | – | CC(C)(C)c1ccc(-c2nc3ccccc3n2COC(=O)c2ccc(CN)cc2)cc1.Cl [Example 8-P, (4-(((2-(4-(tert-butyl)phenyl)-1H-benzo[d]imidazol-1-yl)methoxy)carbonyl)-phenyl)methylammonium hydrochloride] | – | – | – |
| – | – | – | 3.2 | 4.2 | 3.31 | – | 93.2 | – | COc1ccc(-c2nc3ccccc3[nH]2)cc1 [Example 21, 2-(4-Methoxy-phenyl)-1H-benzo[d]imidazole] | A (A = >80% inh.) | – | – |
| – | – | – | 4.7 | 6.9 | 0.86 | 30.9 | 21 | – | CC(C)(C)c1cccc(-c2nc3ccccc3[nH]2)c1 [Example 58, 2-(3-tert-Butylphenyl)-1H-benzo[d]imidazole] | A (A = >80% inh.) | – | – |

| Structure (SMILES) | brain levels of API (example 1 compound) [1] | liver levels of API (example 1 compound) [1] | plasma levels of API (example 1 compound) [1] | half-life at 1 μM [2] [min] | half-life at 1 μM [3] [min] | Papp A→B at 2 h, 10 μM [5] [×10⁻⁶ cm/s] | Caco2 B → A (Caco-2 cells [6]) [nm/s] | Caco2 A → B (Caco-2 cells [6]) [nm/s] | Caco2 A → B w/ elacridar (Caco-2 cells [6]; with elacridar as transporter inhibitor) [nm/s] | TNF α Inhibition [4] | Papp A→B at 2 h, 10 μM (in vitro) [×10⁻⁶ cm/s] | Caco2 B → A (Caco-2 cells [7]) [nm/s] |
| --- | --- | --- | --- | --- | --- | --- | --- | --- | --- | --- | --- | --- |
| CC(C)(C)c1ccc(-c2nc3ccccc3[nH]2)cc1 [Example 1, 2-(4-(tert-Butyl)phenyl)-1H-benzo[d]imidazole] | – | – | – | 16.7 | 14 | – | – | – | – | A (A = >80% inh.) | 0.659 | 31.5 |
